Measurements: paper PMC8101618, “Comparable Initial Engagement of Intracellular Signaling Pathways by Parathyroid Hormone Receptor Ligands Teriparatide, Abaloparatide, and Long‐Acting PTH” (JBMR Plus, 2021)
Where no end group is shown, it is not given here. TMR = tetramethyl-rhodamine

How the values were obtained:
[1] = target: T1, PTH1R (endogenous, Ocy454 cells) (Mus musculus, UniProt P41593); assay: intracellular cAMP in Ocy454 cells; format: cell-based, murine; conditions: IBMX (2mM), 30 min, room temperature, radioimmunoassay, repeated three times, Fig 3A, read-out: cAMP generation EC50
T1 construct: effects of distinct PTH1R ligands on endogenous receptors in Ocy454 cells; endogenous in cells; host or cells: Ocy454 cells (murine osteocyte-like line, subclone 6-9)
T1 sequence (P41593 27-591): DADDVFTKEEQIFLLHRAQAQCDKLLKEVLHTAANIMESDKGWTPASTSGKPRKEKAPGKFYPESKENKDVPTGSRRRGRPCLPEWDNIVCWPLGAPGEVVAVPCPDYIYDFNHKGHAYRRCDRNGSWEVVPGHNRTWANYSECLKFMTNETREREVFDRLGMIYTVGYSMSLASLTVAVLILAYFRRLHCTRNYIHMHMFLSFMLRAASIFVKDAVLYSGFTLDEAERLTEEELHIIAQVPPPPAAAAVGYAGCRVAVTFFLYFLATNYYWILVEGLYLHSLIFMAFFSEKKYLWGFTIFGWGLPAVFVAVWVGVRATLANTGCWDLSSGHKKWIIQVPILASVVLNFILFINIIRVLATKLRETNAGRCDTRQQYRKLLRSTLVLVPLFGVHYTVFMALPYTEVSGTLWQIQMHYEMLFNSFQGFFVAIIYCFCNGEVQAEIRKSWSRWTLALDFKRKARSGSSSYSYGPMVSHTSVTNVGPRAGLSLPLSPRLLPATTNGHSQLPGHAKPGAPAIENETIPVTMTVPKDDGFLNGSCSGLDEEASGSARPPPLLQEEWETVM
Protocol: Confluent Ocy454 cells in 96‐well plates were treated with a abaloparatide or a PTH analog at varying concentrations in a buffer of Hanks balanced salts solution (HBSS) containing 0.1% BSA and 3‐isobutyl‐1‐methylxanthine (IBMX) (2mM) for 30 min at room temperature. The buffer was then removed and the cells were lysed by placing the plate on a bed of powdered dry ice and adding 50 μL of 50mM HCl. After freezing and thawing, the lysates were diluted in water and then assessed for cAMP content by radioimmunoassay.
First, we assessed the effects of different PTH analogs on cAMP generation. For this, cells were treated with different concentrations of peptides in the presence of IBMX for 30 min at room temperature, followed by radioimmunoassay for cAMP.

[2] = tested on: Gαq/phospholipase signaling; conditions: cited from earlier work
Protocol: (§1) First, we assessed the ability of distinct PTH1R peptide ligands (Fig. 1A ) to induce Gαq/PKC‐dependent increases in intracellular calcium in HEK293 cells stably expressing hPTH1R (GP‐2.3 cells). For this, cells were preloaded with the calcium indicator dye Fura2‐AM, and then treated with different PTH ligands at a concentration of 100nM. Intracellular calcium fluxes were measured by ratiometric fluorescence (excitation = 340 nm and 380 nm, emission = […]) over time.

hPTH1R = assay: intracellular calcium (Fura2-AM) in HEK293/hPTH1R/glosensor (GP-2.3) cells; format: cell-based, human; conditions: 100nM; HEK293 cells stably expressing hPTH1R (GP-2.3); Fura2-AM ratiometric fluorescence 340/380 nm; 150 s after ligand addition; repeated two times
Protocol: Signaling via the iCa^++ pathway was assessed in stably transfected HEK‐HEK293/hPTH1R/glosensor (GP‐2.3) cells using the calcium‐sensitive fluorophore Fura2‐AM (Invitrogen, Life Tech. Grand Island, NY, USA).^( ^32 ^) Confluent cells in a black, 96‐well plate were preloaded with Fura2‐AM (5μM) for 45 min and then unloaded in buffer for 30 min. The plate was then processed using a Perkin Elmer Envision plate reader (Perkin Elmer, Waltham, MA, USA) to monitor fluorescence emission at a wavelength (λem) of 515 nm, upon sequential excitation at wavelengths (λex) of 340 nm and 380 nm. Data were recorded at 2‐s intervals for 10 s prior to, and for 150 s after ligand addition. The data at each time point were calculated as the ratio of the fluorescence signal obtained with excitation at 340 nm to that obtained with excitation at 380 nm.
as §1

ratPTH1R = assay: internalization of TMR-labeled ligand-PTH1R complexes in GR-35 cells; format: cell-based, rat; conditions: TMR-labeled ligands (TMR at Lys13), 15 min, 21°C, HEK293 ratPTH1R/glosensor GR-35 cells, epifluorescent microscopy; 100nM (methods) or 10nM (results); repeated two times
Protocol: Internalization of ligand‐PTH1R complexes was assessed by fluorescent microscopy in stably transfected HEK293/ratPTH1R/glosensor (GR‐35) cells. The cells were cultured on glass coverslips in 24‐well plates to ~75% of confluency, and then treated with a tetramethylrhodamine (TMR)‐labeled PTH analog (100nM, TMR attached to Lys13) in HBSS containing 0.1% BSA (HB buffer) for 15 min at 21°C. The cells were then rinsed thrice with HB buffer, fixed with 4% formalin for 5 min, mounted with vector‐shield containing 4,6‐diamidino‐2‐phenylindole (DAPI) on a glass microscope slide, and viewed and digitally imaged using a Nikon epifluorescent microscope (Nikon, Tokyo, Japan) equipped with a charge‐coupled device (CCD) camera configured with SPOT imaging software (SPOT Imaging, Sterling Heights, MI, USA).
Next, we asked whether PTH analogs might have different effects on PTH1R activation‐dependent internalization. For this, HEK293 cells stably expressing a rat PTH1R cDNA (GR‐35 cells) were treated with tetramethyl‐rhodamine‐labeled versions of hPTH (1‐34), PTHrP, and abaloparatide (the TMR fluorophore is attached at the K13 position of each peptide). Cells were treated for 15 min at room temperature (21°C) at peptide doses of 10nM. After excess unbound peptide was washed away, cells were examined by epifluorescent microscopy.

EC50 [1] | Compound | ligand-PTH1R internalization (ratPTH1R) | further results
0.589 nM | CC[C@H](C)[C@H](NC(=O)[C@H](CO)NC(=O)[C@H](CCCCN)NC(=O)CNC(=O)[C@H](CCCCN)NC(=O)[C@H](CC(=O)O)NC(=O)[C@H](Cc1cnc[nH]1)NC(=O)[C@H](CC(C)C)NC(=O)[C@H](CC(C)C)NC(=O)[C@H](CCC(N)=O)NC(=O)[C@H](Cc1cnc[nH]1)NC(=O)[C@H](CCC(=O)O)NC(=O)[C@H](CO)NC(=O)[C@@H](NC(=O)[C@H](C)N)C(C)C)C(=O)N[C@@H](CCC(N)=O)C(=O)N[C@@H](CC(=O)O)C(=O)N[C@@H](CC(C)C)C(=O)N[C@@H](CCCNC(=N)N)C(=O)N[C@@H](CCCNC(=N)N)C(=O)N[C@@H](CCCNC(=N)N)C(=O)N[C@@H](CCC(=O)O)C(=O)N[C@@H](CC(C)C)C(=O)N[C@@H](CC(C)C)C(=O)N[C@@H](CCC(=O)O)C(=O)N[C@@H](CCCCN)C(=O)N[C@@H](CC(C)C)C(=O)N[C@@H](CC(C)C)C(=O)NC(C)(C)C(=O)N[C@@H](CCCCN)C(=O)N[C@@H](CC(C)C)C(=O)N[C@@H](Cc1cnc[nH]1)C(=O)N[C@H](C(=O)N[C@@H](C)C(N)=O)[C@@H](C)O [abaloparatide] |  | 
0.562 nM | AVAEIQLMHQRAKWIQDARRRAFLHKLIAEIHTAEI [LA‐PTH] |  | 
 | Trp1‐PTH (1‐34): a PTH analog defective at activating Gαq/phospholipase signaling (WVSEIQLMHNLGKHLNSMERVEWLRKKLQDVHNF; Parathyroid hormone; UniProt P01270 32-65, looked up, variant S1W) |  | activation of Gαq/phospholipase signaling [2]: defective at activating Gαq/phospholipase signaling; intracellular calcium release (hPTH1R): does not stimulate intracellular calcium
 | ^TMRPTHc35 (1‐35): Tetramethyl‐rhodamine (TMR)‐labeled version of PTH, TMR attached to Lys13 (SVSEIQLMHNLGK(TMR)HLNSMERVEWLRKKLQDVHNFV; UniProt P01270 32-66, looked up, fragment) | induced ligand‐PTH1R internalization | 
 | ^TMRPTHrP (1‐36): Tetramethyl‐rhodamine (TMR)‐labeled version of PTHrP, TMR attached to Lys13 | induced ligand‐PTH1R internalization | 
